Assay results as given in patent US10010585B2, “Methods of treating vestibular schwannoma and reducing hearing or neurite loss caused by vestibular schwannoma” (Massachusetts Eye and Ear Infirmary, priority 2014, dated 2018).

Key:
[1] = tested on: cochlear explant cultures (hair cells and neurites); assay: Murine cochlear explant culture, hair cell, neurite and fiber damage counts; format: cell-based, CBA/CaJ mice; settings: 1 mM gentamicin, basal turn
Excerpt: To develop an animal model to study hearing loss due to VS, cochlear explant cultures were established from postnatal CBA/CaJ mice aged P3-P5 (Jackson Laboratory, ME). Briefly, after decapitating the mouse, temporal bones were dissected from the skull in Hank's Balanced Salt Solution (Life Technologies, NY). The otic capsule encasing the cochlea was dissected out from each temporal bone. The otic capsule was carefully stripped away and the spiral ligament was peeled away from the entire cochlea, starting from the base. The basal turn of cochlea was then isolated using the dissecting knife (Fine Science Tools, CA), discarding the apical turn hook region. The tectorial membrane and the Reissner's membrane were removed, leaving the organ of Corti intact with the spiral ganglion neuron region. This explant was cultured onto a 10 mm glass coverslip coated with CellTak (BD Biosciences, CA, #354241) in a 35 mm culture dish with 4 wells. Cells were cultured in 98% DMEM, 1% ampicillin and 1% N2 supplement.
To assess FGF2's otoprotective effect, cochlear explant cultures were treated with recombinant human FGF2±gentamicin. After culturing the explants overnight, media fortified with FGF2 (100 ng/mL) was applied. Twenty-four hours later media fortified with gentamicin (1 mM) and FGF2 (100 ng/mL) was applied. […] Cochlear explants were fixed after an additional 24 hours of treatment, with total time being 48 hours.
After treatment, the explants were fixed and stained with antibodies against myosin 7A (Myo7A, Proteus Biosciences, CA) and β-tubulin (Tuj1, Covance, MA) to identify hair cells (HCs) and neurons, respectively. The same immunofluorescence protocol as described in Example 1 was used, with the exceptions of omission of […] HCl incubation, usage of 5% NHS with 1% Triton-X for blocking solution and 1% NHS with 0.4% Triton-X solution for primary antibody incubation at room temperature (RT). Secondary antibodies (Alexa Flour 555 anti-mouse and Alexa Four 488 anti-rabbit) were purchased from Life Technologies. Cochlear explants were imaged using a Leica TCS SP5 Confocal microscope. Zoomed-in pictures for the region of organ of Corti, including neurites, were merged in a z-stack to obtain a z-axis projection image in the Leica software. The number of hair cells (HCs) and neurites were manually counted per 100 μm length along the cochlea, with 1-2 samplings per specimen.
The same general methodology for murine cochlear explant cultures as described in Example 5 was utilized. Cochlear explant cultures were established from P2-P3 mice. Importantly, instead of only culturing the basal turn, the apical turn was also isolated, providing two pieces per cochlea with a greater frequency range. After approximately 12 hours, the cochlear explant cultures were treated for 48 hours with tumor secretions diluted to half their concentration. The formulation was 46.5% tumor-conditioned DMEM, 46.5% plain DMEM, 5% FBS, 1% ampicillin and 1% N2 supplement. Cochlear explants were treated with control media in parallel, being 46.5% DMEM incubated without tumor, 46.5% plain DMEM, 5% FBS, 1% ampicillin and 1% N2 supplement. All reagents were purchased from Life Technologies, NY. Osmolality in the solutions was measured in samples using a vapor-pressure osmometer (standardized with 290 mOsm/kg of 0.1567M sodium chloride solution) before applying them onto cochlear explants. Extra formulation for each VS secretion was made to be tested on Milliplex arrays and ELISA. Milliplex array, containing FGF2, VEGF-A and HGF beads (Millipore) and human TNFα ELISA (R&D Systems) were conducted as directed by the manufacturer on VS secretions prior to being applied onto the cochlear explant cultures.
Cochlear explants were fixed 48 hours after treatment and the same methodology for VS secretion application as described in Example 5 was utilized. […]

rat cochlear explants = settings: 1 mM (Zheng and Gao, 1996); cited from earlier work

Q: Which “number of neurites per 100 μm” value ([1]; NT 13.1±1.7) does the source give for gentamicin here?
A: 7.3±2.3 per 100 μm

Q: What about the “total number of HCs per 100 μm length” value ([1]; NT 49.1±8.7) of the same substance?
A: 10.4±7.0 per 100 μm

Q: And the HC loss (rat cochlear explants)?
A: almost complete HC loss

Q: What about the neurites lost (rat cochlear explants) of the same substance?
A: 25%
